Results on one molecule are retold here after publication PMC8693680 (RSC Advances, 2021).

The target of this assay is Bovine serum albumin (BSA) (Bos taurus, UniProt P02769). As to the kind of experiment: Trp fluorescence quenching. The note with it: 5 μM BSA, 0-15 μM dye, 10 mM HEPES pH 7.4, 298 K; double-log; n = 0.35. Type of assay: binding.

The structures appear in SMILES notation.

Chain of Bovine serum albumin (BSA) (P02769 25-607): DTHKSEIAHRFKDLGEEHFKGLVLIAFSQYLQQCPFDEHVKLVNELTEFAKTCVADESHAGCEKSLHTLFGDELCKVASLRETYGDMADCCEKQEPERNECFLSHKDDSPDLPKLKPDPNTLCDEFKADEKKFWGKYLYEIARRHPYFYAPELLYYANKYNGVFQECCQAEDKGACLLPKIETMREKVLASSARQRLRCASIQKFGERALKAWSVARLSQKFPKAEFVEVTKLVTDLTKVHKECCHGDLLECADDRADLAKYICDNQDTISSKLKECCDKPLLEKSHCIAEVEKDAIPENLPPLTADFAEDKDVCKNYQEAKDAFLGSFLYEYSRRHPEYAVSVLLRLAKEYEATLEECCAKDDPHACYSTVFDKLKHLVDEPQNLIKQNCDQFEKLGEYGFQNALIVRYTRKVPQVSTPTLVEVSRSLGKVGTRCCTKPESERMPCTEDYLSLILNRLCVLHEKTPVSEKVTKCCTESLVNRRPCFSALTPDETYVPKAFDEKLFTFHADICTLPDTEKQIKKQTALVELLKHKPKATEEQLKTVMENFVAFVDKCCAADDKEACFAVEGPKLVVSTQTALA

Take `c1ccc2c(c1)Nc1ccccc1S2` [PTZ]: the “Binding constant, K′” value stood at 6190 M⁻¹.
